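Method: 48-hour compound exposure of cells in 96-well plates, five concentrations, linear interpolation of endpoints. GI50 is the concentration that inhibits growth by half.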 The source made the active and inactive calls. No stated cut-off is given here; in the data, active = GI50 up to about 1.1 µM and inactive = higher.
Experiments:
Experiment in all cases: NCI tumour cell line growth inhibition, 48 h
786-0 = test system: 786-0
A549 = test system: A549
ACHN = test system: ACHN
BT-549 = test system: BT-549
CAKI-1 = test system: CAKI-1
COLO 205 = test system: COLO 205
DU-145 = test system: DU-145
EKVX = test system: EKVX
HCC 2998 = test system: HCC 2998
HCT-116 = test system: HCT-116
HCT-15 = test system: HCT-15
HL-60 = test system: HL-60
HOP-62 = test system: HOP-62
HOP-92 = test system: HOP-92
HT-29 = test system: HT-29
Hs-578T = test system: Hs-578T
IGROV-1 = test system: IGROV-1
K562 = test system: K562
KM12 = test system: KM12
LOX IMVI = test system: LOX IMVI
M14 = test system: M14
MCF7 = test system: MCF7
MDA-MB-231 = test system: MDA-MB-231
MDA-MB-435 = test system: MDA-MB-435
MOLT-4 = test system: MOLT-4
Malme-3M = test system: Malme-3M
NCI-H226 = test system: NCI-H226
NCI-H23 = test system: NCI-H23
NCI-H460 = test system: NCI-H460
NCI-H522 = test system: NCI-H522
NCI/ADR-RES = test system: NCI/ADR-RES
OVCAR-3 = test system: OVCAR-3
OVCAR-4 = test system: OVCAR-4
OVCAR-5 = test system: OVCAR-5
OVCAR-8 = test system: OVCAR-8
PC-3 = test system: PC-3
RPMI-8226 = test system: RPMI-8226
RXF 393 = test system: RXF 393
SF-268 = test system: SF-268
SF-295 = test system: SF-295
SF-539 = test system: SF-539
SK-MEL-28 = test system: SK-MEL-28
SK-MEL-2 = test system: SK-MEL-2
SK-MEL-5 = test system: SK-MEL-5
SN12C = test system: SN12C
SNB-19 = test system: SNB-19
SNB-75 = test system: SNB-75
SR = test system: SR
TK-10 = test system: TK-10
U-251 = test system: U-251
UACC-257 = test system: UACC-257
UACC-62 = test system: UACC-62
UO-31 = test system: UO-31
A498 = test system: A498
CCRF-CEM = test system: CCRF-CEM
SW-620 = test system: SW-620
T47D = test system: T47D

`Nc1ccc2c(c1)NCCN2` was tested, and the GI50 (786-0) was > 100 µM (inactive), the GI50 (A549) was 18.2 µM (inactive) and the GI50 (ACHN) was 6.53 µM (inactive). The GI50 (BT-549) was 37.2 µM (inactive), the GI50 (CAKI-1) was 12.9 µM (inactive) and the GI50 (COLO 205) was 9.66 µM (inactive). The GI50 (DU-145) was 25.7 µM (inactive), the GI50 (EKVX) was 54.1 µM (inactive) and the GI50 (HCC 2998) was > 100 µM (inactive). The GI50 (HCT-116) was > 100 µM (inactive), the GI50 (HCT-15) was 61.9 µM and the GI50 (HL-60) was 9.71 µM (inactive). For the same molecule, the GI50 (HOP-62) was > 100 µM (inactive), the GI50 (HOP-92) was > 100 µM (inactive) and the GI50 (HT-29) was 42.3 µM (inactive). For the same molecule, the GI50 (Hs-578T) was 7.76 µM (inactive), the GI50 (IGROV-1) was 8.36 µM (inactive) and the GI50 (K562) was 18.3 µM (inactive). The GI50 (KM12) was > 100 µM (inactive), the GI50 (LOX IMVI) was 8.05 µM (inactive) and the GI50 (M14) was 73.1 µM (inactive). For the same molecule, the GI50 (MCF7) was 4.53 µM (inactive), the GI50 (MDA-MB-231) was > 100 µM (inactive) and the GI50 (MDA-MB-435) was 82 µM (inactive). The GI50 (MOLT-4) was 2.75 µM (inactive), the GI50 (Malme-3M) was 51.4 µM (inactive) and the GI50 (NCI-H226) was 7.8 µM (inactive). The GI50 (NCI-H23) was 78.9 µM (inactive), the GI50 (NCI-H460) was 4.39 µM (inactive) and the GI50 (NCI-H522) was 7.64 µM (inactive). For the same molecule, the GI50 (NCI/ADR-RES) was > 100 µM (inactive), the GI50 (OVCAR-3) was > 100 µM (inactive) and the GI50 (OVCAR-4) was > 100 µM (inactive). The GI50 (OVCAR-5) was > 100 µM (inactive), the GI50 (OVCAR-8) was 50.9 µM (inactive) and the GI50 (PC-3) was > 100 µM (inactive). For the same molecule, the GI50 (RPMI-8226) was 70.1 µM (inactive), the GI50 (RXF 393) was > 100 µM (inactive) and the GI50 (SF-268) was 56.5 µM (inactive). For the same molecule, the GI50 (SF-295) was 64.1 µM (inactive), the GI50 (SF-539) was 14.7 µM (inactive) and the GI50 (SK-MEL-28) was > 100 µM (inactive). The GI50 (SK-MEL-2) was > 100 µM (inactive), the GI50 (SK-MEL-5) was 5.11 µM (inactive) and the GI50 (SN12C) was 48.8 µM (inactive). The GI50 (SNB-19) was 9.84 µM (inactive), the GI50 (SNB-75) was > 100 µM (inactive) and the GI50 (SR) was 1.69 µM (inactive). For the same molecule, the GI50 (TK-10) was 55.7 µM (inactive), the GI50 (U-251) was 22.9 µM (inactive) and the GI50 (UACC-257) was 82 µM (inactive). For the same molecule, the GI50 (UACC-62) was 5.13 µM (inactive) and the GI50 (UO-31) was 17.4 µM (inactive).

In the case of `N#Cc1ccc2[nH]c3c(c2c1)CC(=O)Nc1ccccc1-3` [PAULLONE 2], the GI50 (786-0) is reported as > 100 µM (inactive), the GI50 (A498) is reported as > 100 µM (inactive) and the GI50 (A549) is reported as > 100 µM (inactive). For the same molecule, the GI50 (ACHN) was > 100 µM (inactive), the GI50 (BT-549) was > 100 µM (inactive) and the GI50 (CAKI-1) was > 100 µM (inactive). The GI50 (CCRF-CEM) was > 100 µM (inactive), the GI50 (COLO 205) was > 100 µM (inactive) and the GI50 (EKVX) was > 100 µM (inactive). The GI50 (HCC 2998) was > 100 µM (inactive), the GI50 (HCT-116) was 21.5 µM (inactive) and the GI50 (HCT-15) was > 100 µM. The GI50 (HL-60) was > 100 µM (inactive), the GI50 (HOP-62) was > 100 µM (inactive) and the GI50 (HOP-92) was > 100 µM (inactive). For the same molecule, the GI50 (HT-29) was > 100 µM (inactive), the GI50 (Hs-578T) was > 100 µM (inactive) and the GI50 (IGROV-1) was 99.8 µM (inactive). For the same molecule, the GI50 (K562) was > 100 µM (inactive), the GI50 (LOX IMVI) was > 100 µM (inactive) and the GI50 (M14) was > 100 µM (inactive). The GI50 (MCF7) was > 100 µM (inactive), the GI50 (MDA-MB-231) was > 100 µM (inactive) and the GI50 (MDA-MB-435) was > 100 µM (inactive). The GI50 (MOLT-4) was > 100 µM (inactive), the GI50 (NCI-H226) was > 100 µM (inactive) and the GI50 (NCI-H23) was > 100 µM (inactive). For the same molecule, the GI50 (NCI-H460) was > 100 µM (inactive), the GI50 (NCI-H522) was 28.8 µM (inactive) and the GI50 (NCI/ADR-RES) was > 100 µM (inactive). The GI50 (OVCAR-3) was > 100 µM (inactive), the GI50 (OVCAR-4) was > 100 µM (inactive) and the GI50 (OVCAR-5) was > 100 µM (inactive). The GI50 (OVCAR-8) was > 100 µM (inactive), the GI50 (PC-3) was > 100 µM (inactive) and the GI50 (RPMI-8226) was > 100 µM (inactive). The GI50 (RXF 393) was > 100 µM (inactive), the GI50 (SF-268) was > 100 µM (inactive) and the GI50 (SF-295) was > 100 µM (inactive). The GI50 (SF-539) was > 100 µM (inactive), the GI50 (SK-MEL-28) was > 100 µM (inactive) and the GI50 (SK-MEL-2) was > 100 µM (inactive). The GI50 (SK-MEL-5) was > 100 µM (inactive), the GI50 (SNB-19) was > 100 µM (inactive) and the GI50 (SNB-75) was > 100 µM (inactive). For the same molecule, the GI50 (SR) was 2.9 µM (inactive), the GI50 (SW-620) was > 100 µM (inactive) and the GI50 (T47D) was > 100 µM (inactive). The GI50 (TK-10) was > 100 µM (inactive), the GI50 (U-251) was > 100 µM (inactive) and the GI50 (UACC-257) was > 100 µM (inactive). The GI50 (UACC-62) was > 100 µM (inactive) and the GI50 (UO-31) was > 100 µM (inactive).

From ChEMBL document CHEMBL1201862, “PubChem BioAssay data set” (2004)
